Assay results as given in publication PMC6270026, “Antibacterial and Herbicidal Activity of Ring-Substituted 2-Hydroxynaphthalene-1-carboxanilides” (Molecules, 2013).
In brackets after ≈: the same amount, converted by molar mass. Several values for one entry are separate records, joined by “and”; a condition that tells them apart may be missing. Identical values can stand only once.

Assays:
M. smegmatis ATCC 700084 = test: In vitro antimycobacterial evaluation (broth dilution MIC); type: cell-based, Mycobacterium smegmatis; details: Mycolicibacterium smegmatis, ATCC700084, 72 h; M. smegmatis ATCC 700084, 3 days, 37 °C
[1] = system: methicillin-resistant Staphylococcus aureus SA 630; test: In vitro antibacterial susceptibility testing (broth dilution MIC); type: cell-based; details: MRSA, clinical isolate SA 630, 24 h, 37 °C
Protocol: (§1) The synthesized compounds were evaluated for in vitro antibacterial activity against representatives of multidrug-resistant bacteria, clinical isolates of methicillin-resistant Staphylococcus aureus (MRSA) 63718, SA 630 and SA 3202 that were obtained from the National Institute of Public Health, Prague, Czech Republic. Staphylococcus aureus ATCC 29213 was used as a reference and quality control strain. Ampicillin (Sigma-Aldrich) was used as the standard. Prior to testing, each strain was passaged onto nutrient agar (Oxoid, Hampshire, UK) with 5% of bovine blood, and bacterial inocula were prepared by suspending a small portion of bacterial colony in sterile phosphate buffered saline (pH 7.2–7.3). The cell density was adjusted to 0.5 McFarland units using a densitometer (Densi-La-Meter, LIAP, Riga, Latvia). The final inoculum was made by 1:20 dilution of the suspension with the Mueller-Hinton broth (MH broth). […] The final concentrations of the evaluated compounds ranging from 256 μg/mL to 0.008 μg/mL. The broth dilution micro-method modified according to NCCLS guidelines in MH broth was used to determine the minimum inhibitory concentration (MIC). Drug-free controls, sterility controls and controls consisted of MH broth and DMSO alone were included. The determination of results was performed visually after 24 h of static incubation in the darkness at 37 °C in an aerobic atmosphere. The MICs were defined as the lowest concentration of the compound at which no visible bacterial growth was observed.

[2] = system: methicillin-resistant Staphylococcus aureus SA 3202; test: as above; type: cell-based; details: MRSA, clinical isolate SA 3202, 24 h, 37 °C, read-out: MIC MRSA 3202
Protocol: as §1

[3] = system: methicillin-resistant Staphylococcus aureus (MRSA) 63718; test: as above; type: cell-based; details: clinical isolate MRSA 63718, 24 h, 37 °C
Protocol: as §1

[4] = system: Staphylococcus aureus ATCC 29213; test: as above; type: cell-based; details: ATCC29213; Staphylococcus aureus ATCC 29213, 24 h, 37 °C
Protocol: as §1

[5] = Lipophilicity determination by RP-HPLC (capacity factor log k); type: physicochemical; details: isocratic, MeOH 60%/H2O 40%, C18
Protocol: A HPLC system Agilent 1200 equipped with DAD detector (Agilent, Santa Clara, CA, USA) was used. A chromatographic column Symmetry® C18 5 μm, 4.6 × 250 mm, Part No. WAT054275, (Waters Corp., Milford, MA, USA) was used. The HPLC separation process was monitored and evaluated by EZChrom Elite software ver. 3.3.2 (Agilent). Isocratic elution by a mixture of MeOH p.a. (60%) and H2O-HPLC Mili-Q grade (40%) as a mobile phase was used. The total flow of the column was 1.0 mL/min, injection 20 μL, column temperature 40 °C and sample temperature 10 °C. The detection wavelength 210 nm was chosen. The KI methanolic solution was used for the dead time (tD) determination. Retention times (tR) were measured in minutes. The capacity factors k were calculated according to formula k = (tR − tD)/tD, where tR is the retention time of the solute, whereas tD denotes the dead time obtained using an unretained analyte. Log k, calculated from the capacity factor k, is used as the lipophilicity index converted to log P scale.

[6] = system: photosynthetic electron transport (PET) in spinach chloroplasts; test: Inhibition of photosynthetic electron transport (PET) in spinach chloroplasts; type: biochemical, Spinacia oleracea L.; details: DCPIP photoreduction
Protocol: Chloroplasts were prepared from spinach (Spinacia oleracea L.) according to Masarovicova and Kralova. The inhibition of photosynthetic electron transport (PET) in spinach chloroplasts was determined spectrophotometrically (Genesys 6, Thermo Electron Scientific Instruments, Madison, WI, USA), using an artificial electron acceptor 2,6-dichlorophenol-indophenol (DCPIP) according to Kralova et al., and the rate of photosynthetic electron transport was monitored as a photoreduction of DCPIP. The measurements were carried out in phosphate buffer (0.02 mol/L, pH 7.2) containing sucrose (0.4 mol/L), MgCl2 (0.005 mol/L) and NaCl (0.015 mol/L). The chlorophyll content was 30 mg/L in these experiments and the samples were irradiated (~100 W/m^2 with 10 cm distance) with a halogen lamp (250 W) using a 4 cm water filter to prevent warming of the samples (suspension temperature 22 °C). The studied compounds were dissolved in DMSO due to their limited water solubility. […] The inhibitory efficiency of the studied compounds was expressed by IC50 values, i.e., by molar concentration of the compounds causing 50% decrease in the oxygen evolution rate relative to the untreated control.

[7] = system: Mycobacterium avium subsp. paratuberculosis (CIT03); test: In vitro antimycobacterial evaluation (alamarBlue MIC); type: cell-based; details: 264 h, M. avium paratuberculosis CIT03, 11 days, 37 °C
Protocol: A well characterised clinical isolate of Mycobacterium avium subsp. paratuberculosis (CIT03) was grown in Middlebrook broth (MB), supplemented with Oleic-Albumin-Dextrose-Catalase supplement (OADC, Becton, Dickinson & Comp., Franklin Lakes, NJ, USA) and mycobactin J (2 µg/mL). Identification of this isolate was performed using biochemical and molecular protocols. At log phase growth, a culture sample (10 mL) was centrifuged at 15,000 rpm/20 min using a bench top centrifuge (Model CR 4-12, Jouan Inc., Winchester, VA, USA). Following removal of the supernatant, the pellet was washed in fresh Middlebrook 7H9GC broth and re-suspended in fresh supplemented MB (10 mL). The turbidity was adjusted to match McFarland standard No. 1 (3 × 10^8 cfu) with MB broth. A further 1:20 dilution of the culture was then performed in MB broth. The antimicrobial susceptibility of the mycobacterial species was investigated in a 96-well plate format. In these experiments, sterile deionised water (300 µL) was added to all outer-perimeter wells of the plates to minimize evaporation of the medium in the test wells during incubation. Each evaluated compound (100 µL) was incubated with each of the mycobacterial species (100 µL). Dilutions of each compound were prepared in duplicate. For all synthesized compounds, final concentrations ranged from 1,000 µg/mL to 8 µg/mL. All compounds were prepared in DMSO and subsequent dilutions were made in supplemented MB. The plates were sealed with parafilm and incubated at 37 °C, for 11 days in the case of M. avium paratuberculosis. Following incubation, a 10% addition of alamarBlue (AbD Serotec, Kidlington, UK) was mixed into each well and readings at 570 nm and 600 nm were taken, initially for background subtraction and subsequently after 24 h re-incubation. The background subtraction is necessary for strongly coloured compounds, where the colour may interfere with the interpretation of any colour change. For non-interfering compounds, a blue colour in the well was interpreted as an absence of growth and a pink colour was scored as growth. The minimum inhibitory concentrations (MICs) were initially defined as the lowest concentration which prevented a visual colour change from blue to pink.
The MICs were defined as the lowest concentration of the compound at which no visible bacterial growth was observed. The MIC value is routinely and widely used in bacterial assays and is a standard detection limit according to the Clinical and Laboratory Standards Institute (CLSI). Isoniazid (Sigma-Aldrich) was used as reference antimycobacterial drug.

[8] = system: Mycobacterium marinum CAMP 5644; test: In vitro antimycobacterial evaluation (broth dilution MIC); type: cell-based; details: for MIC: Mycobacterium marinum, CAMP5644, 504 h, M. marinum CAMP 5644, 21 days, 28 °C
M. kansasii DSM 44162 = test: as above; type: cell-based; details: Mycobacterium kansasii, DSM44162, 168 h; M. kansasii DSM 44162, 7 days, 37 °C

Structure (SMILES) | MIC (M. smegmatis ATCC 700084) [µM] | MIC [1] [µM] | MIC [2] [µM] | MIC [3] [µM] | MIC [4] [µM] | log k [5] | IC50 [6] | MIC [7] [µM] | MIC [8] [µM] | MIC (M. kansasii DSM 44162) [µM] | fold higher activity against M. marinum than isoniazid ([8]; ratio of MIC to isoniazid)
O=C(Nc1ccccc1F)c1c(O)ccc2ccccc12 [Compound 4a, N-(2-fluorophenyl)-2-hydroxynaphthalene-1-carboxamide] | 228 (≈ 64.1 µg/mL) | 455 (≈ 128 µg/mL) | 455 (≈ 128 µg/mL) | 455 (≈ 128 µg/mL) | 228 (≈ 64.1 µg/mL) | 0.5664 | 243 µM | 203 (≈ 57.1 µg/mL) | 228 (≈ 64.1 µg/mL) | 114 (≈ 32.1 µg/mL) | 
O=C(Nc1cccc(F)c1)c1c(O)ccc2ccccc12 [Compound 4b, N-(3-fluorophenyl)-2-hydroxynaphthalene-1-carboxamide] | > 910 | > 910 | 228 (≈ 64.1 µg/mL) | > 910 | 228 (≈ 64.1 µg/mL) | 0.5025 | 213 µM | > 889 | > 910 | 114 (≈ 32.1 µg/mL) | 
O=C(Nc1ccc(F)cc1)c1c(O)ccc2ccccc12 [Compound 4c, N-(4-fluorophenyl)-2-hydroxynaphthalene-1-carboxamide] | > 910 | > 910 | > 910 | > 910 | > 910 | 0.5568 | 313 µM | > 889 | > 910 | > 910 | 
O=C(Nc1cccc(Cl)c1)c1c(O)ccc2ccccc12 [Compound 5b, N-(3-chlorophenyl)-2-hydroxynaphthalene-1-carboxamide] | 215 (≈ 64 µg/mL) | > 860 | 107 (≈ 31.9 µg/mL) | > 860 | > 860 | 0.7904 | 79.7 µM | 840 (≈ 250 µg/mL) | > 860 | 53.7 (≈ 16 µg/mL) | 
O=C(Nc1ccc(Cl)cc1)c1c(O)ccc2ccccc12 [Compound 5c, N-(4-chlorophenyl)-2-hydroxynaphthalene-1-carboxamide] | > 860 | > 860 | 107 (≈ 31.9 µg/mL) | > 860 | 215 (≈ 64 µg/mL) | 0.7908 | 59.2 µM | 420 (≈ 125 µg/mL) | > 860 | 53.7 (≈ 16 µg/mL) | 
O=C(Nc1ccc([N+](=O)[O-])cc1)c1c(O)ccc2ccccc12 [Compound 8c, 2-Hydroxy-N-(4-nitrophenyl)naphthalene-1-carboxamide] |  |  | 104 (≈ 32.1 µg/mL) |  |  | 0.6260 | 37.5 µM | 811 (≈ 250 µg/mL) | ~52 (≈ 16 µg/mL) | 415 (≈ 128 µg/mL) | about 9 fold
CN(C)C(=O)Nc1ccc(Cl)c(Cl)c1 [DCMU, 3-(3,4-dichlorophenyl)-1,1-dimethylurea, reference compound] |  |  |  |  |  | 0.8801 | ~1.9 µM and 1.9 µM |  |  |  | 
NNC(=O)c1ccncc1 [INH, isoniazid, reference compound] |  |  |  |  |  | 0.0141 |  | > 1820 | 467 (≈ 64 µg/mL) |  | 
